{"source": "patent US12365680B2", "about": "“Polymorphs of the hydrochloride salt of linaprazan glurate” (Cinclus Pharma Holding AB (Publ), priority 2021, dated 2025)", "key": {"[1]": {"assay": "Dynamic vapour sorption (DVS) hygroscopicity", "type": "physicochemical", "description": "Analyses were performed on an SMS DVS-1 instrument. A few mg of the substance was added into an Al pan and exposed to stepwise RH changes during two identical consecutive cycles according to 0-10-20-30-40-50-60-70-80-90-80-70-60-50-40-30-20-10-0% RH using open loop mode. The experiments were performed using a gas flow rate of 200 mL/min and at 25° C. The dm/dt criteria applied was 0.001 weight-%/min during a 5-minutes window, with a maximum allowed time of 360 minutes and a minimum allowed time of 10 minutes for all steps.\nThe hygroscopicity of Form 1 (obtained by crystallisation from DMF using EtOAc as the anti-solvent) and Form 2 (obtained from a slurry in MeOH) was investigated using DVS at 25° C. […] With a water uptake of 0.2% at 90% RH, Form 1 can be classified as non-hygroscopic.\nThe water uptake is rapid when the relative humidity is increased, and the water loss is equally rapid when the relative humidity is decreased. The sorption behaviour is typical for a channel hydrate, where the crystal structure adapts to accommodate different amounts of water depending on the surrounding humidity. The water uptake of 4.7% at 90% RH corresponds to 1.3 water molecules per linaprazan glurate HCl unit."}, "[2]": {"assay": "Solubility of free base and HCl salt in media simulating gastric fluid (FaSSGF, FeDSGA)", "type": "physicochemical", "conditions": "after 1 hour", "description": "For solubility studies, HPLC was performed using an Agilent 1100 series Liquid Chromatography system, equipped with DAD spectrometer. Analyses were performed using a Waters X Bridge BEH C18 column (4.6×100 mm, 2.5 μm) at 30° C. Mobile phase: A=0.1% formic acid in water, B=0.1% formic acid in acetonitrile. Flow rate 0.8 mL/min. Mobile phase program:\nThe solubility of the crystalline free base (Form A) and the crystalline HCl salt of linaprazan glurate (mixture of Forms 1 and 2) was studied in Fasted State Simulated Gastric Fluid (FaSSGF, Biorelevant, batch FFF-0119-B; pH 1.6) and Fed State Gastric Acid (FeDSGA, Biorelevant, batch FEDGAS-120-A; pH 5.0).\nSaturated solutions were prepared in 4 mL vials by adding a fixed weight of the crystalline base or the crystalline HCl salt to 2 mL of each of the different buffer solutions. Vials were sonicated for 10 minutes and then stirred with a magnetic stirrer on a water bath (37° C.) for 24 hours. Samples were taken after 1, 4 and 24 hours, in replicates, and analysed by HPLC-UV. Concentrations were calculated from a calibration curve, constructed using 8 calibration standards (serial dilutions of stock solutions of the free base and the HCl salt of linaprazan glurate)."}, "[3]": {"conditions": "cited from earlier work"}, "[4]": {"assay": "Pharmacokinetics of linaprazan glurate after absorption", "conditions": "in vivo"}, "[5]": {"conditions": "Phase I and II studies; cited from earlier work"}, "intragastric acidity": {"test_system": "intragastric acidity", "assay": "Clinical Phase I study of linaprazan glurate, intragastric pH", "type": "in vivo", "conditions": "human, plasma, oral; after 22 hours; to maintain intra-gastric pH above 4 for 24 hours; read-out: minimal plasma concentration (Cmin) of linaprazan required"}}, "note": "“Also recorded” adds a separate entry of the source. Where a name gives a salt, the structure may show the parent alone.", "data": [{"molecule": "Cc1cccc(C)c1CNc1cc(C(=O)NCCOC(=O)CCCC(=O)O)cn2c(C)c(C)nc12", "note": "[Form 1]", "values": [{"measurement": "hygroscopicity (in words)", "setting": "[1]; DVS at 25° C.", "value": "non-hygroscopic; also recorded: very low hygroscopicity"}]}, {"molecule": "Cc1cccc(C)c1CNc1cc(C(=O)NCCOC(=O)CCCC(=O)O)cn2c(C)c(C)nc12", "note": "[Form 2]", "values": [{"measurement": "hygroscopicity (in words)", "setting": "[1]; DVS at 25° C.", "value": "significant uptake of water at elevated humidities"}, {"measurement": "water uptake", "setting": "[1]; DVS at 25° C., 90% RH", "value": 4.7, "unit": "%"}, {"measurement": "water molecules per linaprazan glurate HCl unit", "setting": "[1]; corresponds to water uptake at 90% RH", "value": 1.3}]}, {"molecule": "Cc1cccc(C)c1CNc1cc(C(=O)NCCOC(=O)CCCC(=O)O)cn2c(C)c(C)nc12", "note": "[HCl salt]", "values": [{"measurement": "solubility of the HCl salt relative to the free base", "setting": "[2]; FeDSGA pH 5.0, 37° C.", "value": "more than 6.5 times"}]}, {"molecule": "Cc1cccc(C)c1CNc1cc(C(=O)NCCOC(=O)CCCC(=O)O)cn2c(C)c(C)nc12", "note": "[free base]", "values": [{"measurement": "solubility at pH 1", "setting": "[3]; pH 1", "value": "only slightly soluble"}, {"measurement": "solubility in water at pH 6.8", "setting": "[3]; pH 6.8", "value": "practically insoluble"}, {"measurement": "solubility of the free base relative to the HCl salt", "setting": "[2]; FaSSGF pH 1.6, 37° C.", "value": "about 1.4 times"}]}, {"molecule": "Cc1cccc(C)c1CNc1cc(C(=O)NCCOC(=O)CCCC(=O)O)cn2c(C)c(C)nc12", "note": "[linaprazan glurate, 5-{2-[({8-[(2,6-dimethylbenzyl)amino]-2,3-dimethylimidazo[1,2-a]pyridine-6-yl}carbonyl)-amino]ethoxy}-5-oxopentanoic acid]", "values": [{"measurement": "half-life in the body compared to linaprazan", "setting": "[4]", "value": "longer half-life"}, {"measurement": "metabolism following absorption into the blood stream", "setting": "[4]", "value": "quickly metabolized into linaprazan"}, {"measurement": "plasma concentration", "setting": "[4]", "value": "only very low and difficult to determine"}]}, {"molecule": "Cc1cccc(C)c1CNc1cc(C(=O)NCCO)cn2c(C)c(C)nc12", "note": "[linaprazan]", "values": [{"measurement": "elimination", "setting": "[5]", "value": "quickly eliminated from the body"}, {"measurement": "onset of action and effect", "setting": "[5]", "value": "fast onset of action and full effect at first dose"}, {"measurement": "tolerability", "setting": "[5]", "value": "well tolerated"}, {"measurement": "concentration at 22 h", "setting": "intragastric acidity", "value": "≥ 240", "unit": "nM"}]}]}
